Laboratory results: patent US10398783B2, “Antiproliferative compounds and conjugates made therefrom” (BRISTOL-MYERS SQUIBB COMPANY, priority 2016, dated 2019)

What was measured:
Type in all cases: cell-based, human
[1] = test system: mesothelioma (H226) cancer cell line; assay: 72 hr ATP luminescence cell proliferation inhibition assay, H226
Procedure: (§1) Proliferation inhibition was measured using a 72 hr ATP luminescence assay (Cheng et al., U.S. Pat. No. 8,394,922 B2 (2013)). The antiproliferative effects are reported as IC50's, i.e., the concentration of compound that produces a 50% inhibitory effect on cell proliferation.

[2] = test system: colon cancer (HCT116) cell line; assay: 72 hr ATP luminescence cell proliferation inhibition assay, HCT116
Procedure: as §1

[3] = test system: ovarian cancer (OVCAR3) cell line; assay: 72 hr ATP luminescence cell proliferation inhibition assay, OVCAR3
Procedure: as §1

[4] = test system: gastric (stomach) cancer (N87) cell line; assay: 72 hr ATP luminescence cell proliferation inhibition assay, N87; conditions: N87 cells
Procedure: as §1

Row | Compound | IC50 ([1]; H226 cells) [nM] | IC50 ([2]; HCT116 cells) [nM] | IC50 ([3]; OVCAR3 cells) [nM] | IC50 [4] [nM] | IC50 ([1]; Homo sapiens, NCI-H226, H226 cells) [nM] | IC50 ([2]; Homo sapiens, HCT-116, HCT116 cells) [nM] | IC50 ([3]; Homo sapiens, OVCAR-3, OVCAR3 cells) [nM] | IC50 ([4]; Homo sapiens) [nM]
1 | COc1cc2c(cc1OCCCC(=O)Nc1ccc(C(=O)Nc3ccccc3)cc1)N=C[C@@H]1Cc3ccccc3CN1C2=O [(Ib-01)] | 1.2 | 0.73 | 0.38 | 0.65 | – | – | – | –
2 | COc1cc2c(cc1OCCCC(=O)Nc1ccccc1C(=O)Nc1ccccc1)N=C[C@@H]1Cc3ccccc3CN1C2=O [(Ib-02)] | < 250 | < 250 | 140 | 93 | – | – | – | –
3 | COc1cc2c(cc1OCCCC(=O)Nc1cccc(C(=O)Nc3ccccc3)c1)N=C[C@@H]1Cc3ccccc3CN1C2=O [(Ib-03)] | 9.4 | 6.9 | 3.1 | 2.4 | – | – | – | –
4 | COc1cc2c(cc1OCCCC(=O)Nc1ncc(C(=O)Nc3ccccc3)s1)N=C[C@@H]1Cc3ccccc3CN1C2=O [(Ib-04)] | 5.6 | 2.7 | 0.78 | 2.6 | – | – | – | –
5 | COc1cc2c(cc1OCCCC(=O)Nc1nc(C(=O)Nc3ccccc3)cs1)N=C[C@@H]1Cc3ccccc3CN1C2=O [(Ib-05)] | 0.23 | 0.12 | 0.27 | 0.11 | – | – | – | –
6 | COc1cc2c(cc1OCCCC(=O)Nc1cc(C(=O)Nc3ccc(-n4cnc(C)n4)c(C(F)F)c3)n(C)c1)N=C[C@@H]1Cc3ccccc3CN1C2=O [(Ib-09)] | 0.05 | 0.039 | 0.12 | 0.035 | – | – | – | –
7 | COc1cc2c(cc1OCCCC(=O)Nc1cc(C(=O)Nc3ccc(-n4cnc(C)n4)c(OCC(F)F)c3)n(C)c1)N=C[C@@H]1Cc3ccccc3CN1C2=O [(Ib-11)] | 0.98 | 0.026 | 0.1 | 0.12 | – | – | – | –
8 | COc1cc2c(cc1OCCCC(=O)Nc1cc(C(=O)Nc3ccc(-n4cnc(C)n4)c(OC)c3)n(C)c1)N=C[C@@H]1Cc3ccccc3CN1C2=O [(Ib-13)] | – | – | – | – | 0.039 | 0.036 | 0.17 | 0.14
9 | COc1cc2c(cc1OCCCC(=O)Nc1cc(C(=O)Nc3ccc(-c4cccc(C(=O)OC(C)C)c4)cc3)n(C)c1)N=C[C@@H]1Cc3ccccc3CN1C2=O [(Ib-14)] | 0.67 | 0.07 | 0.18 | 0.049 | – | – | – | –
10 | COc1cc2c(cc1OCCCC(=O)Nc1cc(C(=O)Nc3ccc(-n4cnc(Cl)c4)c(OC)c3)n(C)c1)N=C[C@@H]1Cc3ccccc3CN1C2=O [(Ib-19)] | 0.11 | 0.038 | 0.23 | 0.045 | – | – | – | –
11 | COc1cc2c(cc1OCCCC(=O)Nc1cc(C(=O)Nc3ccc(-n4cnc(C)c4)c(OC)c3)n(C)c1)N=C[C@@H]1Cc3ccccc3CN1C2=O [(Ib-21)] | 0.19 | 0.057 | 0.35 | 0.091 | – | – | – | –
12 | COc1cc2c(cc1OCCCC(=O)Nc1cc(C(=O)Nc3ccc(-n4ccnc4)cc3)n(C)c1)N=C[C@@H]1Cc3ccccc3CN1C2=O [(Ib-22)] | 0.18 | 0.088 | 0.91 | 0.24 | – | – | – | –
13 | COC(=O)c1nc(-c2ccc(NC(=O)c3cc(NC(=O)CCCOc4cc5c(cc4OC)C(=O)N4Cc6ccccc6C[C@H]4C=N5)cn3C)cc2)cn1C [(Ib-25)] | 0.15 | 0.057 | 0.35 | 0.084 | – | – | – | –
14 | COc1cc2c(cc1OCCCC(=O)Nc1cc(C(=O)Nc3cc(C)c(-n4cncn4)c(C)c3)n(C)c1)N=C[C@@H]1Cc3ccccc3CN1C2=O [(Ib-28)] | 0.72 | 0.18 | 0.4 | 0.18 | – | – | – | –
15 | COc1cc2c(cc1OCCCC(=O)Nc1cc(C(=O)Nc3ccc(-c4ncc[nH]4)cc3)n(C)c1)N=C[C@@H]1Cc3ccccc3CN1C2=O [(Ib-30)] | 0.66 | 0.1 | 0.76 | 0.37 | – | – | – | –

The next lines start with results.

Row | IC50 ([1]; H226 cells) [nM] | IC50 ([2]; HCT116 cells) [nM] | IC50 ([3]; OVCAR3 cells) [nM] | IC50 [4] [nM] | Compound | IC50 ([1]; Homo sapiens, NCI-H226, H226 cells) [nM] | IC50 ([2]; Homo sapiens, HCT-116, HCT116 cells) [nM] | IC50 ([3]; Homo sapiens, OVCAR-3, OVCAR3 cells) [nM] | IC50 ([4]; Homo sapiens) [nM]
16 | < 0.004 | 0.008 | 0.031 | 0.009 | COc1cc2c(cc1OCCCC(=O)Nc1cc(C(=O)Nc3ccc(-n4cnc(C)n4)nc3)n(C)c1)N=C[C@@H]1Cc3ccccc3CN1C2=O [(Ib-06)] | – | – | – | –
17 | 0.02 | 0.018 | 0.024 | 0.073 | COc1cc2c(cc1OCCCC(=O)Nc1cc(C(=O)Nc3ccc(-n4cnc(Cl)c4)nc3)n(C)c1)N=C[C@@H]1Cc3ccccc3CN1C2=O [(Ib-07)] | – | – | – | –
18 | 0.007 | < 0.004 | 0.013 | 0.006 | COc1cc2c(cc1OCCCC(=O)Nc1cc(C(=O)Nc3ccc(-n4cnc(C)n4)c(F)c3)n(C)c1)N=C[C@@H]1Cc3ccccc3CN1C2=O [(Ib-08)] | – | – | – | –
19 | 0.018 | 0.014 | 0.037 | 0.026 | COc1cc2c(cc1OCCCC(=O)Nc1cc(C(=O)Nc3ccc(-n4cnc(C(F)F)n4)c(OC)c3)n(C)c1)N=C[C@@H]1Cc3ccccc3CN1C2=O [(Ib-10] | – | – | – | –
20 | 0.059 | 0.023 | 0.074 | 0.027 | COc1cc2c(cc1OCCCC(=O)Nc1cc(C(=O)Nc3ccc(-n4cnc(C)n4)c(OC(F)F)c3)n(C)c1)N=C[C@@H]1Cc3ccccc3CN1C2=O [(Ib-12)] | – | – | – | –
21 | < 0.004 | 0.002 | < 0.004 | < 0.004 | COc1ccc(-c2ccc(NC(=O)c3cc(NC(=O)CCCOc4cc5c(cc4OC)C(=O)N4Cc6ccccc6C[C@H]4C=N5)cn3C)cc2)cc1 [(Ib-15)] | – | – | – | –
22 | < 0.004 | < 0.004 | 0.12 | < 0.004 | COc1cc2c(cc1OCCCC(=O)Nc1cc(C(=O)Nc3ccc(-n4cnc(C)n4)cc3)n(C)c1)N=C[C@@H]1Cc3ccccc3CN1C2=O [(Ib-16)] | – | – | – | –
23 | < 0.004 | 0.011 | 0.028 | 0.009 | COc1cc2c(cc1OCCCC(=O)Nc1cc(C(=O)Nc3ccc(-n4cncn4)cc3)n(C)c1)N=C[C@@H]1Cc3ccccc3CN1C2=O [(Ib-17)] | – | – | – | –
24 | 0.11 | 0.055 | 0.2 | 0.052 | COc1cc2c(cc1OCCCC(=O)Nc1cc(C(=O)Nc3ccc(-n4cnc(C(F)F)c4)c(OC)c3)n(C)c1)N=C[C@@H]1Cc3ccccc3CN1C2=O [(Ib-18)] | – | – | – | –
25 | 0.031 | 0.027 | 0.1 | 0.014 | COc1cc2c(cc1OCCCC(=O)Nc1cc(C(=O)Nc3ccc(-n4cnc(Cl)c4)c(F)c3)n(C)c1)N=C[C@@H]1Cc3ccccc3CN1C2=O [(Ib-20)] | – | – | – | –
26 | 0.036 | 0.007 | 0.022 | 0.014 | COc1cc2c(cc1OCCCC(=O)Nc1cc(C(=O)Nc3ccc(-c4cocn4)cc3)n(C)c1)N=C[C@@H]1Cc3ccccc3CN1C2=O [(Ib-23)] | – | – | – | –
27 | 0.053 | 0.008 | 0.16 | 0.074 | COc1cc2c(cc1OCCCC(=O)Nc1cc(C(=O)Nc3cnn(-c4ccccc4)c3)n(C)c1)N=C[C@@H]1Cc3ccccc3CN1C2=O [(Ib-24)] | – | – | – | –
28 | < 0.004 | 0.025 | 0.44 | < 0.004 | COc1cc2c(cc1OCCCC(=O)Nc1cc(C(=O)Nc3ccc(-n4cnc(C)n4)c(O)c3)n(C)c1)N=C[C@@H]1Cc3ccccc3CN1C2=O [(Ib-26)] | – | – | – | –
29 | 0.067 | 0.02 | 0.15 | 0.021 | C=CCOc1cc(NC(=O)c2cc(NC(=O)CCCOc3cc4c(cc3OC)C(=O)N3Cc5ccccc5C[C@H]3C=N4)cn2C)ccc1-n1cnc(C)n1 [(Ib-27)] | – | – | – | –
30 | 0.1 | 0.041 | 0.16 | 0.042 | COc1cc2c(cc1OCCCC(=O)Nc1cc(C(=O)Nc3ccc(-n4cncn4)c(OC)c3)n(C)c1)N=C[C@@H]1Cc3ccccc3CN1C2=O [(Ib-29)] | – | – | – | –
